Source: US20260325510A1, “COMBINATIONS COMPRISING AN ATR INHIBITOR AND A PARP INHIBITOR AND METHODS OF USE THEREOF” (Jazz Pharmaceuticals Therapeutics, Inc., priority 2023, published 2026)

Experiments:
[1] = Baseline monotherapy tolerability, 4 weeks IV (complete blood count); type: in vivo, female athymic nude mice; conditions: 60 mg/kg IV, three times weekly
Protocol: Maximum tolerated dose studies were conducted on healthy, 6-8 week-old female athymic nude mice (Jackson Laboratories). For baseline monotherapy tolerability, 60 mg/kg of niraparib both in free and liposomal form was IV administered to nude mice at a dosing schedule of every other day followed by a two-day holiday (i.e., three days per week) for 4-weeks (n=5 for each cohort). Free drug was supplied in hydroxybetacyclodextrin in HEPES Buffered Saline with 5% dextrose, pH adjusted to 7.4. Study mice were then sacrificed at 24-hours post final injection with endpoint blood collection by cardiac puncture. Complete blood count (CBC) was then conducted on a Vetscan HM5 hematology analyzer (Zoetis, New Jersey, USA).
This study was conducted over a 4-week period to better capture hematopoietic turnover. Athymic nude mice were selected due to the presence of normal levels of neutrophils, monocytes, and red blood cells on top of a reduced number of non-functional lymphocytes. The immunocompromised nature of athymic nude mice allowed for better comparative translation of dose sensitivity to fully immunocompromised mice (i.e. NSG) that are required for xenograft studies.

[2] = Hematology tolerability study; type: in vivo, female C57BL/6 mice; conditions: free ATR inhibitor in combination with free niraparib
Protocol: In order to study the effects of hematology tolerability under different dosing regimens, 8-12 week old, female C57BL/6 mice were used. Body weight was measured qd×5, then biweekly to the end of the study. Animals were weighed and monitored for survival and in-life observations were collected at the time of weight measurement. […] Mice were monitored individually to endpoint which was 18 days. Full volume blood was collected by terminal cardiac puncture under isoflurane anesthesia and analyzed for reticulocyte count/number, red blood cell count/number, hemoglobin, hematocrit, platelet count/number, white blood cell count/number, neutrophil count/number, monocyte count/number and lymphocyte count/number.

| Structure (SMILES) | hematological toxicity [1] | hematological toxicity [2] |
| --- | --- | --- |
| NC(=O)c1cccc2cn(-c3ccc([C@@H]4CCCNC4)cc3)nc12 [FREE-NIRB, niraparib] | significant hematological toxicity in the form of macrocytic anemia |  |
| CNCc1ccc(-c2cc(-c3nc(-c4ccc(S(=O)(=O)C(C)C)cc4)cnc3N)on2)cc1 [berzosertib] |  | severe reticulocytopenia and leukopenia |
